Experimental data as given in paper PMC6024615, “Effect of Biliary Drainage on the Toxicity and Toxicokinetics of Amanita exitialis in Beagles” (Toxins, 2018).

Experiments:
[1] = Peptide toxins in the urine of beagles with biliary drainage; type: in vivo, beagle dogs; conditions: for Total (accumulated) amount excreted in urine / percentage of total urine excretion, Total: 0–4 days
Method: (§1) The study was approved by National Institute of Occupational Health and Poison Control review board for animal experiments. Twenty-four male beagles (age, 8–10 months; weight, 10 ± 1 kg) were obtained from Beijing Institute of Xieerxin Biology Resource (Beijing, China). They were randomly divided into four groups of six animals each: control, biliary drainage, and 20 and 60 mg/kg with biliary drainage groups. The biliary drainage operation was conducted in all groups barring the control group. The dogs were dressed in homemade underwear, coats, and Elizabeth circles for a week to ensure pre-experimental acclimatization (Figure S8a–c). After determining the baseline values for biochemical indicators, the dogs were fasted for 24 h but received water ad libitum. They were anesthetized by intravenous administration of pentobarbital sodium (3%, 1 mL/kg) during the surgery. A temperature of 38–39 °C was maintained with a warming mat. After skin preservation and sterilization, the abdominal cavity was opened through the central abdomen. The abdomen was explored and blunt dissection of the common bile duct was performed (Figure S8d). The common bile duct and its branches were ligated from the intestinal side. A 7.0-Fr drainage catheter (COOK, Bloomington, IN, USA) was percutaneously inserted into the gallbladder, and a medical drainage bag was connected to the drainage catheter coming out of the abdominal cavity. Each opened layer, including the peritoneum, abdominal wall muscle, and skin, was closed with suture. The operative incision was protected with sterile gauze and a bandage, and the dogs were dressed in homemade underwear, coats, and Elizabeth circles. The drainage bag was placed in the pocket of the coat (Figure S8e). After the anesthetic wore off, the dogs were placed in cages, and food and water were provided ad libitum. The operative incision was sterilized with iodophor twice a day until stitches were removed six days after surgery. The drainage bag was replaced every day. On the eighth day after surgery, the 20 and 60 mg/kg with biliary drainage groups were orally administered a lyophilized powder of Amanita exitialis in starch capsules. In control and bile drainage group, the beagle dogs were fed with empty capsules. Immediately after dosing, the animals were placed in their cages, and food and water were provided ad libitum. Dogs were sacrificed with an overdose of sodium pentobarbital at the end of the experiment. All procedures were performed according to the ethical standards of the National Institutes of Health Guide for Animal Welfare and approved by the Institutional Animal Care and Use Committee (EAWE-2017-005).
(§2) Peptide toxins in blood and urine samples were analyzed as described previously. Bile samples from Days 0–1, Days 1–2, Days 2–3, and Days 3–4 were collected and stored in medical drainage bags and the bile volume was recorded. Plasma and urine samples were stored at 2–8 °C until analysis for peptide toxins.
(§3) UPLC and MS/MS parameters were as described in our previous study. The limit of detection and limit of quantitation of each toxin in the bile were 0.03 mg/kg and 0.5 mg/kg, respectively.

[2] = Peptide toxins in the bile of beagles with biliary drainage; type: in vivo, beagle dogs; conditions: for Accumulated amounts excreted in bile / percentage of total bile excretion, Accumulated amounts: 0–4 days; for ratio of peptide toxins in bile to excretion in urine and bile: mean ± SD
Method: as §1, §2
α-Amanitin, β-amanitin, γ-amanitin, and phallacidin were used as the standard reference materials. Aliquots (0.2 mL) of bile samples were transferred into 2-mL polypropylene centrifuge tubes in duplicates. Next, 1 mL of acetonitrile was added to each tube. After vortex-mixing for 1 min, each sample was sonicated for 30 min and centrifuged at 11,200× g for 10 min at 4 °C. The supernatants were loaded on solid-phase extraction columns (Oasis PRiME HLB, 60 mg, 3 cc). The columns were then washed with 3 mL of methanol/ultrapure water (v/v: 5/95). The eluent was evaporated in a stream of nitrogen at room temperature. The dry residue was dissolved in 0.2 mL of ultrapure water and analyzed by UPLC-ESI-MS/MS.
as §3

[3] = 0-1 d, 20 mg/kg with biliary drainage group
[4] = 0-1 d, 60 mg/kg with biliary drainage group
[5] = 0–1 days, 20 mg/kg with biliary drainage group
[6] = 0–1 days, 60 mg/kg with biliary drainage group
[7] = 20 mg/kg with biliary drainage group
[8] = 60 mg/kg with biliary drainage group
[9] = 1-2 d, 20 mg/kg with biliary drainage group
[10] = 1-2 d, 60 mg/kg with biliary drainage group
[11] = 1–2 days, 20 mg/kg with biliary drainage group
[12] = 1–2 days, 60 mg/kg with biliary drainage group
[13] = 2-3 d, 20 mg/kg with biliary drainage group
[14] = 2-3 d, 60 mg/kg with biliary drainage group
[15] = 2–3 days, 20 mg/kg with biliary drainage group
[16] = 2–3 days, 60 mg/kg with biliary drainage group
[17] = 3-4d, 20 mg/kg with biliary drainage group
[18] = 3-4d, 60 mg/kg with biliary drainage group
[19] = 3–4 days, 20 mg/kg with biliary drainage group
[20] = 3–4 days, 60 mg/kg with biliary drainage group

For `CC[C@H](C)[C@@H]1NC(=O)CNC(=O)[C@@H]2Cc3c([nH]c4cc(O)ccc34)[S@+]([O-])C[C@H](NC(=O)CNC1=O)C(=O)N[C@@H](CC(=O)O)C(=O)N1C[C@H](O)C[C@H]1C(=O)N[C@@H]([C@@H](C)[C@@H](O)CO)C(=O)N2` [β-amanitin], the “detection rate of peptide toxins in urine” value (from here on “detection rate … in urine”) [1, 3] was 100%, the “detection rate … in urine” value [1, 4] was 100% and the “daily amount excreted in urine” value [1, 5] was 0.0050 mg. For the same molecule, the “percentage of total urine excretion excreted daily” value ([1]; 0–1 days, 20 mg/kg with biliary drainage group, 20 mg/kg) was “more than 90%”, the “percentage of total urine excretion excreted daily” value ([1]; 0–1 days, 20 mg/kg with biliary drainage group, listed as β-Amanitin, 20 mg/kg) was 93.9% and the “daily amount excreted in urine” value [1, 6] was 0.0065 mg. For the same molecule, the “percentage of total urine excretion excreted daily” value ([1]; 0–1 days, 60 mg/kg with biliary drainage group, 60 mg/kg) was “more than 90%”, the “percentage of total urine excretion excreted daily” value ([1]; 0–1 days, 60 mg/kg with biliary drainage group, listed as β-Amanitin, 60 mg/kg) was 91.4% and the “Total (accumulated) amount excreted in urine” value [1, 7] was 0.0055 mg. For the same molecule, the “percentage of total urine excretion, Total” value [1, 7] was 100%, the “Total (accumulated) amount excreted in urine” value [1, 8] was 0.0068 mg and the “percentage of total urine excretion, Total” value [1, 8] was 100%. For the same molecule, the “time within which toxin was detected in urine” value [1, 7] was “two”, the “time within which toxin was detected in urine” value [1, 8] was “two” and the “detection rate … in urine” value [1, 9] was 50%. For the same molecule, the “detection rate … in urine” value [1, 10] was 83%, the “daily amount excreted in urine” value [1, 11] was 0.0005 mg and the “percentage of total urine excretion excreted daily” value [1, 11] was 6.1%. For the same molecule, the “daily amount excreted in urine” value [1, 12] was 0.0003 mg, the “percentage of total urine excretion excreted daily” value [1, 12] was 8.6% and the “detection rate … in urine” value [1, 13] was 0%. The “toxin content in urine” value ([1]; 2-3d, 20 mg/kg with biliary drainage group, mean ± SD) was 0 µg/L, the “detection rate … in urine” value [1, 14] was 0% and the “toxin content in urine” value ([1]; 2-3d, 60 mg/kg with biliary drainage group, mean ± SD) was 0 µg/L. The “daily amount excreted in urine” value [1, 15] was 0(0%) mg, the “percentage of total urine excretion excreted daily” value [1, 15] was 0(0%) and the “daily amount excreted in urine” value [1, 16] was 0(0%) mg. The “percentage of total urine excretion excreted daily” value [1, 16] was 0(0%), the “detection rate … in urine” value [1, 17] was 0% and the “toxin content in urine” value [1, 17] was 0 µg/L. For the same molecule, the “detection rate … in urine” value [1, 18] was 0%, the “toxin content in urine” value [1, 18] was 0 µg/L and the “daily amount excreted in urine” value [1, 19] was 0(0%) mg. For the same molecule, the “percentage of total urine excretion excreted daily” value [1, 19] was 0(0%), the “daily amount excreted in urine” value [1, 20] was 0(0%) mg and the “percentage of total urine excretion excreted daily” value [1, 20] was 0(0%). For the same molecule, the “share of total urine excretion in the 0–2-day urine” value ([1]; beagles with biliary drainage, both dose groups) was “more than 95%”, the “detection rate of peptide toxins in bile” value [2, 3] was 50% and the “detection rate of peptide toxins in bile” value [2, 4] was 83%. For the same molecule, the “daily amount excreted in bile” value [2, 5] was 0.00014 mg, the “percentage of total bile excretion excreted daily” value [2, 5] was 100% and the “daily amount excreted in bile” value [2, 6] was 0.00122 mg. The “percentage of total bile excretion excreted daily” value [2, 6] was 100%, the “Accumulated amounts excreted in bile” value [2, 7] was 0.00014 mg and the “percentage of total bile excretion, Accumulated amounts” value [2, 7] was 100%. For the same molecule, the “percentage of total bile excretion, Accumulated amounts” value [2, 8] was 100%, the “Accumulated amounts excreted in bile” value ([2]; 60 mg/kg with biliary drainage group, 60 mg/kg) was 0.0012 mg and the “Accumulated amounts excreted in bile” value ([2]; 60 mg/kg with biliary drainage group, listed as β-Amanitin, 60 mg/kg) was 0.00122 mg. The “ratio of peptide toxins in bile to excretion in urine and bile” value (“ratio of peptide toxins in bile” for short) [2, 7] was “less than 10%”, the “ratio of peptide toxins in bile” value ([2]; 20 mg/kg with biliary drainage group, listed as β-Amanitin) was 5.7 ± 8.5% and the “ratio of peptide toxins in bile” value [2, 8] was “less than 20%”. The “ratio of peptide toxins in bile” value ([2]; 60 mg/kg with biliary drainage group, listed as β-Amanitin) was 15.4 ± 10.6%, the “detection rate of peptide toxins in bile” value [2, 9] was 0% and the “toxin concentration in bile” value [2, 9] was 0 µg/L. The “detection rate of peptide toxins in bile” value [2, 10] was 0%, the “toxin concentration in bile” value [2, 10] was 0 µg/L and the “daily amount excreted in bile” value [2, 11] was 0(0%) mg. For the same molecule, the “percentage of total bile excretion excreted daily” value [2, 11] was 0(0%), the “daily amount excreted in bile” value [2, 12] was 0(0%) mg and the “percentage of total bile excretion excreted daily” value [2, 12] was 0(0%). The “detection rate of peptide toxins in bile” value [2, 13] was 0%, the “toxin concentration in bile” value [2, 13] was 0 µg/L and the “detection rate of peptide toxins in bile” value [2, 14] was 0%. For the same molecule, the “toxin concentration in bile” value [2, 14] was 0 µg/L, the “daily amount excreted in bile” value [2, 15] was 0(0%) mg and the “percentage of total bile excretion excreted daily” value [2, 15] was 0(0%). The “daily amount excreted in bile” value [2, 16] was 0(0%) mg, the “percentage of total bile excretion excreted daily” value [2, 16] was 0(0%) and the “detection rate of peptide toxins in bile” value [2, 17] was 0%. The “toxin concentration in bile” value [2, 17] was 0 µg/L, the “detection rate of peptide toxins in bile” value [2, 18] was 0% and the “toxin concentration in bile” value [2, 18] was 0 µg/L. The “daily amount excreted in bile” value [2, 19] was 0(0%) mg, the “percentage of total bile excretion excreted daily” value [2, 19] was 0(0%) and the “daily amount excreted in bile” value [2, 20] was 0(0%) mg. For the same molecule, the “percentage of total bile excretion excreted daily” value [2, 20] was 0(0%).
